The values that follow come from the NIST ThermoML archive (doi:10.1021/je200195q).

A short description of the data set: activity coefficient (dimensionless); of the first substance listed, at infinite dilution; xn = mol fraction of the nth substance listed. To be noted: 101 kPa, Liquid, Chromatography, x1 = 0.

Molecules are shown by their SMILES. ± gives the expanded uncertainty stated by the source.

As for `CCCCCC` [hexane] + CCCCn1cc[n+](C)c1.O=S(=O)([N-]S(=O)(=O)C(F)(F)C(F)(F)F)C(F)(F)C(F)(F)F, the activity coefficient reads like this: (322.55 K) 9.49 ± 0.65; (342.75 K) 8.8 ± 0.6; (362.65 K) 8.43 ± 0.57.
In the case of `ClC(Cl)Cl` [trichloromethane] + CCn1cc[n+](C)c1.CS(=O)(=O)[O-], the activity coefficient reads like this: (312.55 K) 0.563 ± 0.04; (322.45 K) 0.479 ± 0.037; (332.45 K) 1.42 ± 0.093.
Turning to `CC#N` [acetonitrile] + CCCCCC[n+]1ccn(C)c1.FC(F)(F)C(F)(F)[P-](F)(F)(F)(C(F)(F)C(F)(F)F)C(F)(F)C(F)(F)F, the activity coefficient was 0.295 ± 0.031 (312.8 K), 0.295 ± 0.031 (332.85 K) and 0.292 ± 0.031 (354.65 K).
For `C1CCCCCC1` [cycloheptane] + CCCCCC[n+]1ccn(C)c1.FC(F)(F)C(F)(F)[P-](F)(F)(F)(C(F)(F)C(F)(F)F)C(F)(F)C(F)(F)F, the activity coefficient (312.8 K) was 9.01 ± 0.61, the activity coefficient (332.85 K) came out at 13.2 ± 0.9 and the activity coefficient (354.65 K) is 28.7 ± 2.
As to `C1CCCCC1` [cyclohexane] + CCCCn1cc[n+](C)c1.O=S(=O)([N-]S(=O)(=O)C(F)(F)C(F)(F)F)C(F)(F)C(F)(F)F, the activity coefficient (322.55 K) turned out to be 7 ± 0.48, the activity coefficient (342.75 K) worked out at 6.12 ± 0.42 and the activity coefficient (362.65 K) worked out at 5.41 ± 0.37.
The corresponding values for `CCC(C)CC` [3-methylpentane] + CCCCn1cc[n+](C)c1.O=S(=O)([N-]S(=O)(=O)C(F)(F)C(F)(F)F)C(F)(F)C(F)(F)F are 8.23 ± 0.56, 7.79 ± 0.53 and 7.62 ± 0.52.
The matching figures for `CCCO` [propan-1-ol] + CCCCn1cc[n+](C)c1.O=S(=O)([N-]S(=O)(=O)C(F)(F)C(F)(F)F)C(F)(F)C(F)(F)F: 1.99 ± 0.14, 1.62 ± 0.11 and 1.35 ± 0.088.
Turning to `CCCCCCCCCCCCC` [tridecane] + CCn1cc[n+](C)c1.CS(=O)(=O)[O-], the activity coefficient worked out at 3380 ± 230 (312.55 K), 3280 ± 230 (322.45 K) and 3070 ± 210 (332.45 K).
As for `CCC(C)=O` [butanone] + CCCCCC[n+]1ccn(C)c1.FC(F)(F)C(F)(F)[P-](F)(F)(F)(C(F)(F)C(F)(F)F)C(F)(F)C(F)(F)F, the activity coefficient worked out at 0.204 ± 0.029 (312.8 K), 0.195 ± 0.029 (332.85 K) and 0.171 ± 0.029 (354.65 K).
The matching figures for `CCCO` [propan-1-ol] + CCCCCC[n+]1ccn(C)c1.FC(F)(F)C(F)(F)[P-](F)(F)(F)(C(F)(F)C(F)(F)F)C(F)(F)C(F)(F)F: 2.47 ± 0.17, 1.96 ± 0.13 and 1.47 ± 0.096.
Take `C#CCCCCC` [1-heptyne] + CCCCCCCCCCn1cc[n+](CCCCCCCCCC)c1C.O=S(=O)([N-]S(=O)(=O)C(F)(F)F)C(F)(F)F: the activity coefficient reads like this: (323.1 K) 1.06 ± 0.067; (333.15 K) 1.06 ± 0.067; (343.15 K) 1.06 ± 0.067.
As for `CC(C)OC(C)C` [diisopropyl ether] + CCCCCC[n+]1ccn(C)c1.FC(F)(F)C(F)(F)[P-](F)(F)(F)(C(F)(F)C(F)(F)F)C(F)(F)C(F)(F)F, the activity coefficient (312.8 K) came out at 1.59 ± 0.1, the activity coefficient (332.85 K) was determined as 1.7 ± 0.11 and the activity coefficient (354.65 K) turned out to be 1.72 ± 0.12.
As to `c1ccccc1` [benzene] + CCCCn1cc[n+](C)c1.O=S(=O)([N-]S(=O)(=O)C(F)(F)C(F)(F)F)C(F)(F)C(F)(F)F, the activity coefficient is 1.01 ± 0.063 (322.55 K), 1.02 ± 0.064 (342.75 K) and 1.03 ± 0.065 (362.65 K).
`C#CCCCC` [1-hexyne] + CCCCCC[n+]1ccn(C)c1.FC(F)(F)C(F)(F)[P-](F)(F)(F)(C(F)(F)C(F)(F)F)C(F)(F)C(F)(F)F: the activity coefficient (312.8 K) came out at 1.94 ± 0.13, the activity coefficient (332.85 K) stood at 1.89 ± 0.13 and the activity coefficient (354.65 K) turned out to be 1.75 ± 0.12.
As for `CCCCCCCCCCC` [undecane] + CCCCn1cc[n+](C)c1.O=S(=O)([N-]S(=O)(=O)C(F)(F)C(F)(F)F)C(F)(F)C(F)(F)F, the activity coefficient (322.55 K) worked out at 57.3 ± 3.9, the activity coefficient (342.75 K) is 45.9 ± 3.1 and the activity coefficient (362.65 K) was determined as 37.8 ± 2.6.
Take `C=CCCCC` [hex-1-ene] + CCCCCCCCCCn1cc[n+](CCCCCCCCCC)c1C.O=S(=O)([N-]S(=O)(=O)C(F)(F)F)C(F)(F)F: the activity coefficient came to 1.39 ± 0.091 (323.1 K), 1.38 ± 0.09 (333.15 K) and 1.36 ± 0.089 (343.15 K).
Regarding `CCC[N+](=O)[O-]` [1-nitropropane] + CCCCCC[n+]1ccn(C)c1.FC(F)(F)C(F)(F)[P-](F)(F)(F)(C(F)(F)C(F)(F)F)C(F)(F)C(F)(F)F, the activity coefficient (312.8 K) was found to be 0.452 ± 0.036, the activity coefficient (332.85 K) amounted to 0.451 ± 0.036 and the activity coefficient (354.65 K) worked out at 0.436 ± 0.035.
Consider `CCC[N+](=O)[O-]` [1-nitropropane] + CCn1cc[n+](C)c1.CS(=O)(=O)[O-], for which the activity coefficient reads like this: (312.55 K) 4.19 ± 0.28; (322.45 K) 2.7 ± 0.18; (332.45 K) 1.73 ± 0.12.
Take `Cc1ccccc1` [toluene] + CCCCn1cc[n+](C)c1.O=S(=O)([N-]S(=O)(=O)C(F)(F)C(F)(F)F)C(F)(F)C(F)(F)F: the activity coefficient reads like this: (322.55 K) 1.4 ± 0.091; (342.75 K) 1.42 ± 0.093; (362.65 K) 1.46 ± 0.096.
The matching figures for `CC1CCCC1` [methylcyclopentane] + CCCCn1cc[n+](C)c1.O=S(=O)([N-]S(=O)(=O)C(F)(F)C(F)(F)F)C(F)(F)C(F)(F)F: 6.85 ± 0.47, 6.05 ± 0.41 and 5.79 ± 0.4.
The corresponding values for `c1ccsc1` [thiophene] + CCCCn1cc[n+](C)c1.O=S(=O)([N-]S(=O)(=O)C(F)(F)C(F)(F)F)C(F)(F)C(F)(F)F are 0.977 ± 0.061, 0.973 ± 0.061 and 0.981 ± 0.062.
Consider `CCC(=O)CC` [pentan-3-one] + CCCCCCCCCCn1cc[n+](CCCCCCCCCC)c1C.O=S(=O)([N-]S(=O)(=O)C(F)(F)F)C(F)(F)F, for which the activity coefficient was 0.37 ± 0.03 (323.1 K), 0.378 ± 0.033 (333.15 K) and 0.386 ± 0.033 (343.15 K).
In the case of `C#CCCCCC` [1-heptyne] + CCCCn1cc[n+](C)c1.O=S(=O)([N-]S(=O)(=O)C(F)(F)C(F)(F)F)C(F)(F)C(F)(F)F, the activity coefficient (322.55 K) was determined as 3.91 ± 0.27, the activity coefficient (342.75 K) was determined as 3.76 ± 0.26 and the activity coefficient (362.65 K) is 3.58 ± 0.24.
Regarding `ClC(Cl)(Cl)Cl` [tetrachloromethane] + CCCCCC[n+]1ccn(C)c1.FC(F)(F)C(F)(F)[P-](F)(F)(F)(C(F)(F)C(F)(F)F)C(F)(F)C(F)(F)F, the activity coefficient (312.8 K) was found to be 2.19 ± 0.15, the activity coefficient (332.85 K) was 2.08 ± 0.14 and the activity coefficient (354.65 K) turned out to be 1.94 ± 0.13.
Regarding `CCCCCCC` [heptane] + CCCCCCCCCCn1cc[n+](CCCCCCCCCC)c1C.O=S(=O)([N-]S(=O)(=O)C(F)(F)F)C(F)(F)F, the activity coefficient is, setting by setting: (323.1 K) 2.53 ± 0.17; (333.15 K) 2.11 ± 0.14; (343.15 K) 2.08 ± 0.14.
The corresponding values for `CO` [methanol] + CCCCCCCCCCn1cc[n+](CCCCCCCCCC)c1C.O=S(=O)([N-]S(=O)(=O)C(F)(F)F)C(F)(F)F are 0.963 ± 0.061, 0.857 ± 0.055 and 0.755 ± 0.05.
With `Cc1ccc(C)cc1` [1,4-dimethylbenzene] + CCCCn1cc[n+](C)c1.O=S(=O)([N-]S(=O)(=O)C(F)(F)C(F)(F)F)C(F)(F)C(F)(F)F, the activity coefficient is 2.05 ± 0.14 (322.55 K), 2.03 ± 0.14 (342.75 K) and 2 ± 0.14 (362.65 K).
With `CCCCO` [butan-1-ol] + CCCCCCCCCCn1cc[n+](CCCCCCCCCC)c1C.O=S(=O)([N-]S(=O)(=O)C(F)(F)F)C(F)(F)F, the activity coefficient was 1.38 ± 0.09 (323.1 K), 1.2 ± 0.077 (333.15 K) and 1.12 ± 0.071 (343.15 K).
As to `C1CCCCCC1` [cycloheptane] + CCCCn1cc[n+](C)c1.O=S(=O)([N-]S(=O)(=O)C(F)(F)C(F)(F)F)C(F)(F)C(F)(F)F, the activity coefficient is, setting by setting: (322.55 K) 19.8 ± 1.4; (342.75 K) 35.2 ± 2.4; (362.65 K) 56.5 ± 3.9.
Turning to `CCC(C)CC` [3-methylpentane] + CCCCCCCCCCn1cc[n+](CCCCCCCCCC)c1C.O=S(=O)([N-]S(=O)(=O)C(F)(F)F)C(F)(F)F, the activity coefficient reads like this: (323.1 K) 1.71 ± 0.11; (333.15 K) 1.68 ± 0.11; (343.15 K) 1.63 ± 0.11.
In the case of `CCCCCC` [hexane] + CCCCCCCCCCn1cc[n+](CCCCCCCCCC)c1C.O=S(=O)([N-]S(=O)(=O)C(F)(F)F)C(F)(F)F, the activity coefficient reads like this: (323.1 K) 1.82 ± 0.12; (333.15 K) 1.79 ± 0.12; (343.15 K) 1.76 ± 0.12.
For the molecule `CCc1ccccc1` [ethylbenzene] + CCCCn1cc[n+](C)c1.O=S(=O)([N-]S(=O)(=O)C(F)(F)C(F)(F)F)C(F)(F)C(F)(F)F, the activity coefficient reads like this: (322.55 K) 2.04 ± 0.14; (342.75 K) 2.05 ± 0.14; (362.65 K) 2.06 ± 0.14.
`c1ccccc1` [benzene] + CCCCCC[n+]1ccn(C)c1.FC(F)(F)C(F)(F)[P-](F)(F)(F)(C(F)(F)C(F)(F)F)C(F)(F)C(F)(F)F: the activity coefficient runs as follows: (312.8 K) 0.517 ± 0.039; (332.85 K) 0.552 ± 0.04; (354.65 K) 0.564 ± 0.041.
For the molecule `CCCCCCCC` [octane] + CCCCCCCCCCn1cc[n+](CCCCCCCCCC)c1C.O=S(=O)([N-]S(=O)(=O)C(F)(F)F)C(F)(F)F, the activity coefficient reads like this: (323.1 K) 2.54 ± 0.17; (333.15 K) 2.48 ± 0.17; (343.15 K) 2.45 ± 0.17.
Turning to `ClCCl` [dichloromethane] + CCCCn1cc[n+](C)c1.O=S(=O)([N-]S(=O)(=O)C(F)(F)C(F)(F)F)C(F)(F)C(F)(F)F, the activity coefficient turned out to be 0.356 ± 0.033 (322.55 K), 0.436 ± 0.035 (342.75 K) and 0.539 ± 0.039 (362.65 K).
